These results are taken from PMC7217877, “N-AS-triggered SPMs are direct regulators of microglia in a model of Alzheimer’s disease” (Nature Communications, 2020).

As usually defined, the Km is the substrate concentration at which the rate is half of its maximum.

Structures are written as SMILES. Several values for one entry are separate records, joined by “and”; a condition that tells them apart may be missing. Equal values may be shown once. Read-outs that look alike come from different tables or passages of the source.

In one experiment the target is T1, SphK1 WT (Homo sapiens, UniProt Q9NYA1).
T1 construct: His (N); made in house
Briefly: filter binding assay of [3H] acetyl-CoA to SphK1 (Supplementary Fig 1f,g). To be noted: for Km: read-out: KM of acetyl-CoA binding to SphK1. The text has this: Single point mutations in SphK1 (R56A, R57A, R24A, R185A, D178A, and F192A) and COX2 (S565A, N181A, T564A, and S567A) were generated using the In-Fusion Cloning Kits (Clontech) and ORF cDNA expression plasmids of human SphK1 and COX2 gene (Sino Biological Inc, HG15679-NH and HG12036-NH), according to the manufacturer’s instructions. The forward and reverse primers described in Supplementary Table 4. The SphK1 WT, SphK1 mutants, COX2 WT, and COX2 mutant plasmids were transformed in the One shot TOP 10 competent cell (Invitrogen). The bacteria were grown in Luria-Bertani (LB, Invitrogen) plates supplemented with 50 μg ml^−1 kanamycin (Sigma-Aldrich) at 37 °C. The bacterial cell pellets were resuspended in lysis buffer containing 20 mM sodium phosphate (GE Healthcare), 500 mM NaCl (GE Healthcare), 20 mM imidazole (pH 7.4) (GE Healthcare), 0.2 mg ml^−1 lysozyme (Sigma-Aldrich), 20 μg ml^−1 DNase I (Roche), 1 mM MgCl2 (Sigma-Aldrich), and 1 mM PMSF (Sigma-Aldrich) before being lysed by sonication and clarified by centrifugation at 15,493×g for 10 min. Proteins were purified from the soluble fraction using His-Spin Trap columns (GE Healthcare) and the binding and acetylation assays were performed.
Briefly, SphK1 WT and mutant enzymes (1 mU) were resuspended in 100 μl reaction buffer (20 mM HEPES; pH 7.4, 50 mM NaCl, 10 mM MgCl2, 1 mM EGTA, 0.02% Triton-X100, and 100 μM sphingosine, all from Sigma-Aldrich). […] Briefly, COX2 WT and mutant enzymes (1 mU) were resuspended in 100 μl reaction buffer (20 mM HEPES; pH 7.4, 50 mM NaCl, 10 mM MgCl2, 1 mM EGTA, and 0.02% Triton-X100, all from Sigma-Aldrich). Reactions were initiated by adding [^14C] N-AS (1–200 μM (0.1–20 μCi), ARC UK Ltd, ARC-1024) and incubated at 37 °C for 1 h. The reactions were terminated by adding 100 μl of ice-cold reaction buffer containing 5 mM cold N-AS and immediately filtered through P30 filtermat (Perkin-Elmer), followed by five washes.
The binding velocity was plotted and the Kcat and KM values were calculated from the Michaelis-Menten analysis using the Sigma-plot program (ver 10.0, Systat software Inc.).

The subject of another experiment is APP/PS1 mice. Briefly: flow cytometry of brain microglia polarity (CD86/CD206, Fig 4e). The experiment is classed as in vivo, mouse. To be noted: APP/PS1 + N-AS, individual values. How it is done: Transgenic mouse lines over-expressing the hAPP695swe (APP) and presenilin-1M146V (PS1) mutations were originated from GlaxoSmithKline (Harlow, UK)[32] and maintained as described previously. We purchased 5×FAD mice from Jackson Labs (Stock number. 34840-JAX). Because APP/PS1 and 5xFAD mice show sex differences in disease progression, we used only male mice. To examine possible therapeutic effect of N-AS and aspirin in APP/PS1 mice, the N-AS (30 mg kg^−1, Sigma-Aldrich, 01912) was injected daily s.c. for 8 weeks to 7-months-old APP/PS1 mice until the age of 9 months, and aspirin (2 mg kg^−1, Sigma-Aldrich, A5376)[33] was administrated orally to 7-months-old APP/PS1 mice for 8 weeks. Also, to confirm possible therapeutic efficacy of N-AS in 5×FAD, the N-AS (30 mg kg^−1, Sigma-Aldrich, 01912) was injected daily s.c. for 4 weeks to 3-months-old 5×FAD mice until the age of 4 months. Block randomization method was used to allocate the animals to experimental groups. To eliminate the bias, we were blinded in experimental progress such as data collection and data analysis. Mice were housed at temperature of 22 °C and a 12 h day/12 h night cycle with free access to tap water and food pellets. All protocols were approved by the Kyungpook National University Institutional Animal Care and Use Committee.
Brain microglia polarity and immune cells in brain and blood were analyzed by flow cytometry. Cells from WT, APP/PS1, and APP/PS1 treated with N-AS mice brain were prepared as previously described with minor modifications. Brains of WT, APP/PS1, and APP/PS1 treated with N-AS mice were dissected and immediately transferred in ice-cold HBSS (Gibco). After gentle mincing, the brain was digested in a HBSS solution containing collagenase P (0.2 mg ml^−1, Roche), dispase II (0.8 mg ml^−1, Roche), DNase I (0.01 mg ml^−1, Roche), and collagenase A (0.3 mg ml^−1, Roche) at 37 °C for 1 h under gentle rocking. […] Red blood cells were lysed once at 4 °C for 10 min in 0.15 M NH4Cl ([…] Technologies), washed once with PBS (Gibco), and counted using cell counter (Logos biosystems). […]

[1] abbreviates: ATP 1000 µM, 100 µM sphingosine.
Where [2] appears, read: SphK1 (WT), Supplementary Fig 1g.

T1 sequence (Q9NYA1 whole entry): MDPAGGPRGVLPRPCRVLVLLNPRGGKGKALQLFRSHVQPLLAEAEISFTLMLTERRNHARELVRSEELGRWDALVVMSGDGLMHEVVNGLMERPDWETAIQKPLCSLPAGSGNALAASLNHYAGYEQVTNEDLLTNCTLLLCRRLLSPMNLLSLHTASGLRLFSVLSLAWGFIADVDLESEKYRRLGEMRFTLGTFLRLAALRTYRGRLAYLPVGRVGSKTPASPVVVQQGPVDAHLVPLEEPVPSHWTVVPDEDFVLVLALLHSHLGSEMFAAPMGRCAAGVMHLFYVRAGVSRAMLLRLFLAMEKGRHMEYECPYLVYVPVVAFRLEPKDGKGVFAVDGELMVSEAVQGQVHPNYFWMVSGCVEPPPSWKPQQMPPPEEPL

`CC(=O)SCCNC(=O)CCNC(=O)[C@H](O)C(C)(C)COP(=O)(O)OP(=O)(O)OC[C@H]1O[C@@H](n2cnc3c(N)ncnc32)[C@H](O)[C@@H]1OP(=O)(O)O` [Acetyl-CoA, acetyl-CoA]: the “Kcat of acetyl-CoA binding to SphK1” value on SphK1 WT (ATP 0 µM, 100 µM sphingosine) was 0.000282 s⁻¹; at SphK1 WT (ATP 10 µM, 100 µM sphingosine), 0.000268 s⁻¹; at SphK1 WT (ATP 100 µM, 100 µM sphingosine), 0.000183 s⁻¹; on SphK1 WT (setting [1]) it was 0.000138 s⁻¹; on SphK1 WT (setting [2]), 0.000288 s⁻¹. Besides, the Km at SphK1 WT (ATP 0 µM, 100 µM sphingosine) amounted to 11 µM; on SphK1 WT (ATP 10 µM, 100 µM sphingosine), 24.5 µM; on SphK1 WT (ATP 10 µM, 100 µM sphingosine, listed as acetyl-CoA), 24.5 µM; at SphK1 WT (ATP 100 µM, 100 µM sphingosine), 35.2 µM; on SphK1 WT (ATP 100 µM, 100 µM sphingosine, listed as acetyl-CoA) it was 35.2 µM; at SphK1 WT (setting [1]), 39 µM. Besides, the Km came out at 39 µM on SphK1 WT (ATP 1000 µM, 100 µM sphingosine, listed as acetyl-CoA) and 10.5 µM at SphK1 WT (setting [2]).

Regarding `CCCCCCCCCCCCC/C=C/[C@@H](O)[C@H](CO)NC(C)=O` [N-AS, N-((2S,3R,E)-1,3-Dihydroxyoctadec-4-en-2-yl)acetamide], in the experiment on APP/PS1 mice, the “calculated percentage of CD86+ CD206+ cells” value is 1.29 and 0.77 and 0.87 and 1.7 and 1.28 and 1.46; the “calculated percentage of CD86+ CD206- (pro-inflammatory microglia) cells” value was 0.012 and 0.071 and 0.011 and 0.023 and 0.034 and 0.025; the “calculated percentage of CD86- CD206+ (anti-inflammatory microglia) cells” value is 3.06 and 1.43 and 2.01 and 2.77 and 2.35 and 2.46.
